From patent US12502410B2, “Preservation of pancreatic islet grafts in the extrahepatic space” (The Regents of the University of California, priority 2017, dated 2025)

Columns and labels:
SCIPC [1] = assay: SCIPC viability in nutrient deprived and/or hypoxic culture, PI staining and flow cytometry; assay type: cell-based, human; conditions: for preservation of insulin-producing cells after stress: SCIPC; for beta cell / SCIPC survival: nutrient deprived and/or hypoxic environment, 24 hours
Method: (§1) SCIPC cultured for 24 hours in nutrient deprived and/or hypoxic conditions with or without GABA, PTH, and PTHrP At the end of the experiment, islet viability was measured using PI staining followed by flow cytometry. FIG. 11B depicts the effect of GABA, PTH and PTHrP on preserving insulin-producing cells after stress. FIG. 11C depicts quantification of viability of eBC cultured for 24 hours in nutrient deprived or hypoxic conditions with or without GABA, PTH, and PTHrP. […] Quantification of viability of cBC cultured for 24 hours in nutrient deprived and/or hypoxic conditions with or without leptin or serotonin. Islet viability measured using PI staining followed by flow cytometry.
(§2) In order to understand whether cell survival is due to secreted pro-survival or pro-angiogenic molecules, known PTG-released molecules were added to SCIPC and eBC cultures in vitro. While PTH is the main PTG-secreted hormone, previous publications also show GABA production within the PTG. GABA and PTH improve beta cell survival in nutrient deprived and/or hypoxic environment in vitro (FIG. 11A).

eBC = eBC viability in nutrient deprived and/or hypoxic culture, PI staining and flow cytometry; assay type: cell-based, human; conditions: 24 hours; for preservation of insulin-producing cells after stress: nutrient deprived or hypoxic; for beta cell survival: nutrient deprived and/or hypoxic
Method: as §1, §2

human islets = assay: Amino acid supplementation, viability of high density culture (PI staining); assay type: cell-based; conditions: 1000 islets/mL, RPMI+5% serum
Source text: (§3) FIG. 15A, FIG. 15B, and FIG. 15C depict the effect of nutrient supplementation on islet cell death in vitro. The effects of cell survival by supplementation of amino acids on mouse islets (FIG. 15A), human islets (FIG. 15B), and SCIPC (FIG. 15C) cultured in low or high density conditions (mouse=1000 islets/mL, human=1000 islets/mL, SCIPC=3000 clusters/mL) in RPMI+5% serum with addition of glucose. GLN: glutamine, TRP: tryptophan. Cell viability is quantified using PI staining via flow cytometry. Data shown are a summary of 3 independent experiments.
(§4) Various insulin-producing cells cultured in low (nutrient replete; mouse=200 islets/mL, human=200 islets/mL, SCIPC=200 clusters/mL) or high density conditions (nutrient limiting; mouse=1000 islets/mL, human=1000 islets/mL, SCIPC=3000 clusters/mL) in RPMI+5% serum with addition of glucose.

mouse islets = assay: as above; assay type: cell-based; conditions: 1000 islets/mL, RPMI+5% serum
Source text: as §3, §4

SCIPC [2] = assay: as above; assay type: cell-based, human; conditions: 3000 clusters/mL, RPMI+5% serum
Source text: as §3, §4

Molecule	preservation of insulin-producing cells after stress (SCIPC [1])	beta cell / SCIPC survival (SCIPC [1])	preservation of insulin-producing cells after stress (eBC)	other results
NCCCC(=O)O [GABA]	preferentially preserve	improve	preferentially preserve	
parathyroid hormone-related protein [PTHrP]	preferentially preserve	preserve SCIPC survival	preferentially preserve	
leptin				beta cell survival (eBC): preserves beta cell survival
NCCc1c[nH]c2ccc(O)cc12 [serotonin]				beta cell survival (eBC): preserves beta cell survival
NC(=O)CC[C@H](N)C(=O)O [glutamine]				viability under nutrient-limiting condition (human islets): preserved viability; viability under nutrient-limiting condition (mouse islets): preserved viability; viability under nutrient-limiting condition (SCIPC [2]): preserved viability
N[C@@H](Cc1c[nH]c2ccccc12)C(=O)O [tryptophan]				viability under nutrient-limiting condition (human islets): preserved viability; viability under nutrient-limiting condition (mouse islets): preserved viability; viability under nutrient-limiting condition (SCIPC [2]): preserved viability
parathyroid hormone (protein, UniProt P01270 32-115, looked up, Parathyroid hormone, main PTG-secreted hormone added to cultures) Parathyroid hormone: SVSEIQLMHNLGKHLNSMERVEWLRKKLQDVHNFVALGAPLAPRDAGSQRPRKKEDNVLVESHEKSLGEADKADVNVLTKAKSQ	preferentially preserve	improve	preferentially preserve	
